From article PMC10937199 (ESMO Open, 2024)

Test system: patients with advanced solid tumors
Test: Safety
Type: in vivo, human
Conditions: Part A

SMILES: COc1ccc([C@@H](O)c2cc(-c3ncnc4cc(N5CCOCC5)ccc34)c(F)cc2Cl)nn1 [Peposertib]
- IRR (100 mg b.i.d., all grade): 0 n (%)
- Immune-related AE (100 mg b.i.d., all grade): 0 n (%)
- Serious TEAE (100 mg b.i.d., all grade): 0 n (%)
- Serious TEAE, peposertib related (100 mg b.i.d., all grade): 0 n (%)
- Serious TEAE, treatment related (100 mg b.i.d., all grade): 0 n (%)
- TEAE (100 mg b.i.d., all grade): 3 (75.0) n (%)
- TEAE, peposertib related (100 mg b.i.d., all grade): 2 (50.0) n (%)
- TEAE, treatment related (100 mg b.i.d., all grade): 3 (75.0) n (%)
- TEAEs leading to death (100 mg b.i.d., all grade): 0 n (%)
- Treatment-related AE leading to death (100 mg b.i.d., all grade): 0 n (%)
- IRR (100 mg b.i.d., grade ≥3): 0 n (%)
- Immune-related AE (100 mg b.i.d., grade ≥3): 0 n (%)
- Serious TEAE (100 mg b.i.d., grade ≥3): 0 n (%)
- Serious TEAE, peposertib related (100 mg b.i.d., grade ≥3): 0 n (%)
- Serious TEAE, treatment related (100 mg b.i.d., grade ≥3): 0 n (%)
- TEAE (100 mg b.i.d., grade ≥3): 0 n (%)
- TEAE, peposertib related (100 mg b.i.d., grade ≥3): 0 n (%)
- TEAE, treatment related (100 mg b.i.d., grade ≥3): 0 n (%)
- TEAEs leading to death (100 mg b.i.d., grade ≥3): 0 n (%)
- Treatment-related AE leading to death (100 mg b.i.d., grade ≥3): 0 n (%)
- Immune-related AE (200 mg b.i.d., all grade): 2 (18.2) n (%)
- Serious TEAE (200 mg b.i.d., all grade): 6 (54.5) n (%)
- Serious TEAE, peposertib related (200 mg b.i.d., all grade): 0 n (%)
- Serious TEAE, treatment related (200 mg b.i.d., all grade): 3 (27.3) n (%)
- TEAE (200 mg b.i.d., all grade): 11 (100.0) n (%)
- TEAE, peposertib related (200 mg b.i.d., all grade): 10 (90.9) n (%)
- TEAE, treatment related (200 mg b.i.d., all grade): 10 (90.9) n (%)
- TEAEs leading to death (200 mg b.i.d., all grade): 0 n (%)
- Treatment-related AE leading to death (200 mg b.i.d., all grade): 0 n (%)
- IRR (200 mg b.i.d., grade ≥3): 0 n (%)
- Immune-related AE (200 mg b.i.d., grade ≥3): 2 (18.2) n (%)
- Serious TEAE (200 mg b.i.d., grade ≥3): 6 (54.5) n (%)
- Serious TEAE, peposertib related (200 mg b.i.d., grade ≥3): 0 n (%)
- Serious TEAE, treatment related (200 mg b.i.d., grade ≥3): 3 (27.3) n (%)
- TEAE (200 mg b.i.d., grade ≥3): 7 (63.6) n (%)
- TEAE, peposertib related (200 mg b.i.d., grade ≥3): 2 (18.2) n (%)
- TEAE, treatment related (200 mg b.i.d., grade ≥3): 4 (36.4) n (%)
- TEAEs leading to death (200 mg b.i.d., grade ≥3): 0 n (%)
- Treatment-related AE leading to death (200 mg b.i.d., grade ≥3): 0 n (%)
- Peposertib-related pneumonitis (250 mg b.i.d.): 25.0%
- Serious TEAE: diarrhea (250 mg b.i.d.): 2 n
- IRR (250 mg b.i.d., all grade): 0 n (%)
- Immune-related AE (250 mg b.i.d., all grade): 3 (75.0) n (%)
- Serious TEAE (250 mg b.i.d., all grade): 4 (100.0) n (%)
- Serious TEAE, peposertib related (250 mg b.i.d., all grade): 2 (50.0) n (%)
- Serious TEAE, treatment related (250 mg b.i.d., all grade): 3 (75.0) n (%)
- TEAE (250 mg b.i.d., all grade): 4 (100.0) n (%)
- TEAE, peposertib related (250 mg b.i.d., all grade): 3 (75.0) n (%)
- TEAE, treatment related (250 mg b.i.d., all grade): 3 (75.0) n (%)
- TEAEs leading to death (250 mg b.i.d., all grade): 0 n (%)
- Treatment-related AE leading to death (250 mg b.i.d., all grade): 0 n (%)
- IRR (250 mg b.i.d., grade ≥3): 0 n (%)
- Immune-related AE (250 mg b.i.d., grade ≥3): 2 (50.0) n (%)
- Serious TEAE (250 mg b.i.d., grade ≥3): 4 (100.0) n (%)
- Serious TEAE, peposertib related (250 mg b.i.d., grade ≥3): 2 (50.0) n (%)
- Serious TEAE, treatment related (250 mg b.i.d., grade ≥3): 3 (75.0) n (%)
- TEAE (250 mg b.i.d., grade ≥3): 4 (100.0) n (%)
- TEAE, peposertib related (250 mg b.i.d., grade ≥3): 2 (50.0) n (%)
- TEAE, treatment related (250 mg b.i.d., grade ≥3): 3 (75.0) n (%)
- TEAEs leading to death (250 mg b.i.d., grade ≥3): 0 n (%)
- Treatment-related AE leading to death (250 mg b.i.d., grade ≥3): 0 n (%)
- Serious TEAE: disease progression (300 mg b.i.d.): 2 n
- IRR (300 mg b.i.d., all grade): 0 n (%)
- Immune-related AE (300 mg b.i.d., all grade): 2 (33.3) n (%)
- Serious TEAE (300 mg b.i.d., all grade): 4 (66.7) n (%)
- Serious TEAE, peposertib related (300 mg b.i.d., all grade): 0 n (%)
- Serious TEAE, treatment related (300 mg b.i.d., all grade): 1 (16.7) n (%)
- TEAE (300 mg b.i.d., all grade): 6 (100.0) n (%)
- TEAE, peposertib related (300 mg b.i.d., all grade): 3 (50.0) n (%)
- TEAE, treatment related (300 mg b.i.d., all grade): 4 (66.7) n (%)
- TEAEs leading to death (300 mg b.i.d., all grade): 2 (33.3) n (%)
- Treatment-related AE leading to death (300 mg b.i.d., all grade): 0 n (%)
- IRR (300 mg b.i.d., grade ≥3): 0 n (%)
- Immune-related AE (300 mg b.i.d., grade ≥3): 2 (33.3) n (%)
- Serious TEAE (300 mg b.i.d., grade ≥3): 4 (66.7) n (%)
- Serious TEAE, peposertib related (300 mg b.i.d., grade ≥3): 0 n (%)
- Serious TEAE, treatment related (300 mg b.i.d., grade ≥3): 1 (16.7) n (%)
- TEAE (300 mg b.i.d., grade ≥3): 5 (83.3) n (%)
- TEAE, peposertib related (300 mg b.i.d., grade ≥3): 0 n (%)
- TEAE, treatment related (300 mg b.i.d., grade ≥3): 2 (33.3) n (%)
- TEAEs leading to death (300 mg b.i.d., grade ≥3): 2 (33.3) n (%)
- Treatment-related AE leading to death (300 mg b.i.d., grade ≥3): 0 n (%)
- IRR (400 mg b.i.d., all grade): 0 n (%)
- Immune-related AE (400 mg b.i.d., all grade): 1 (25.0) n (%)
- Serious TEAE (400 mg b.i.d., all grade): 4 (100.0) n (%)
- Serious TEAE, peposertib related (400 mg b.i.d., all grade): 3 (75.0) n (%)
- Serious TEAE, treatment related (400 mg b.i.d., all grade): 3 (75.0) n (%)
- TEAE (400 mg b.i.d., all grade): 4 (100.0) n (%)
- TEAE, peposertib related (400 mg b.i.d., all grade): 4 (100.0) n (%)
- TEAE, treatment related (400 mg b.i.d., all grade): 4 (100.0) n (%)
- TEAEs leading to death (400 mg b.i.d., all grade): 0 n (%)
- Treatment-related AE leading to death (400 mg b.i.d., all grade): 0 n (%)
- IRR (400 mg b.i.d., grade ≥3): 0 n (%)
- Immune-related AE (400 mg b.i.d., grade ≥3): 1 (25.0) n (%)
- Serious TEAE (400 mg b.i.d., grade ≥3): 4 (100.0) n (%)
- Serious TEAE, peposertib related (400 mg b.i.d., grade ≥3): 3 (75.0) n (%)
- Serious TEAE, treatment related (400 mg b.i.d., grade ≥3): 3 (75.0) n (%)
- TEAE (400 mg b.i.d., grade ≥3): 4 (100.0) n (%)
- TEAE, peposertib related (400 mg b.i.d., grade ≥3): 4 (100.0) n (%)
- TEAE, treatment related (400 mg b.i.d., grade ≥3): 4 (100.0) n (%)
- TEAEs leading to death (400 mg b.i.d., grade ≥3): 0 n (%)
- Treatment-related AE leading to death (400 mg b.i.d., grade ≥3): 0 n (%)
- Discontinuation of all study treatments due to AEs (all dose levels): 11 (37.9%)
- Peposertib-related TEAE: fatigue (all dose levels): 8 (27.6%)
- Peposertib-related TEAE: nausea (all dose levels): 9 (31.0%)
- Peposertib-related TEAE: vomiting (all dose levels): 9 (31.0%)
